In brackets after ≈: the same amount, converted by molar mass. Read-outs that look alike come from different tables or passages of the source. Residues, ends and D or L forms follow the SMILES beside them. *: point of attachment. Octanoyl = CCCCCCCC(=O)*
What was measured:
[1] = system: P. aeruginosa PA259-96196; experiment: microbe, parasite or virus in culture; assay type: cell-based, Pseudomonas aeruginosa; conditions: PA259-96196, 18 h
Method in brief: (§1)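 MIC was determined by broth microdilution following CLSI guidelines. Serially varied compound concentrations were incubated with bacterial inoculum at 5 × 10^5 CFU/mL (final) for 18 h at 37 °C. Growth was scored as turbidity by absorbance at 590 nm.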

[2] = system: P. aeruginosa PA262-101856; experiment: microbe, parasite or virus in culture; assay type: cell-based, Pseudomonas aeruginosa; conditions: PA262-101856, 18 h
Method in brief: as §1

K. pneumoniae 113250 = experiment: microbe, parasite or virus in culture; assay type: cell-based, Klebsiella pneumoniae; conditions: 113250, 18 h
Method in brief: as §1

P. aeruginosa PAO1 = assay type: cell-based, Pseudomonas aeruginosa; conditions: PAO1, 18 h
Protocol: (§2) The in vitro antibacterial activity of the UTBLPs was assessed against wild-type and clinically isolated bacterial strains. To obtain the MIC of the compounds, the microbroth dilution susceptibility assay was performed according to the Clinical and Laboratory Standards Institute (CLSI, Wayne, PA, USA) guidelines and as previously described. Briefly, the compounds at varying concentrations were incubated with bacterial inoculum (5 × 10^5 CFU/mL final concentration) at 37 °C for 18 h. Growth in the form of turbidity was confirmed using an EMax Plus microplate reader (Molecular Devices, San Jose, CA, USA) at 590 nm.

E. faecium ATCC 27270 = assay type: cell-based, Enterococcus faecium
Protocol: (§3) The synergy of the UTBLPs with various antibiotics was assessed using checkerboard assay as previously described. Briefly, the combination of antibiotic and OMP at varying concentrations were incubated with bacterial inoculum (5 × 10^5 CFU/mL final concentration) at 37 °C for 18 h. Growth in the form of turbidity was confirmed using an EMax Plus microplate reader (Molecular Devices, Union City, CA, USA) at 590 nm. Fractional inhibitory concentration index (FICI) was used to evaluate the interaction between the antibiotic and the OMP. FICI is the sum of the FIC of the antibiotic and the FIC of the OMP. The FIC value is calculated by dividing the MIC of the agents in combination by the MIC of the agent alone. FICI ≤ 0.5 is synergistic, 0.5 < x ≤ 4 is additive, and >4 is antagonistic.

MSSE 81388 [3] = assay type: cell-based, Staphylococcus epidermidis; conditions: 18 h
Protocol: as §2

MRSE 61589 [4] = assay type: cell-based, Staphylococcus epidermidis; conditions: 61589, 18 h
Protocol: as §2

E. coli 94474 = experiment: microbe, parasite or virus in culture; assay type: cell-based, Escherichia coli; conditions: 94474, 18 h
Method in brief: as §1

E. coli 94393 [5] = experiment: microbe, parasite or virus in culture; assay type: cell-based, Escherichia coli; conditions: 94393, 18 h
Method in brief: as §1

E. coli ATCC 25922 [6] = assay type: cell-based, Escherichia coli; conditions: for MICUTBLP: UTBLP alone
Method in brief: (§4)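 Checkerboard synergy assay: antibiotic and OMP combined at varying concentrations with 5 × 10^5 CFU/mL inoculum (final), 37 °C, 18 h; growth read as turbidity at 590 nm. FICI = sum of FICs (MIC in combination / MIC alone); ≤0.5 synergistic, 0.5–4 additive, >4 antagonistic.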

E. coli 94393 [7] = assay type: cell-based, Escherichia coli; conditions: for MICUTBLP: UTBLP alone
Method in brief: as §4

E. faecalis ATCC 29212 = assay type: cell-based, Enterococcus faecalis
Protocol: as §3

S. aureus ATCC 29213 = assay type: cell-based, Staphylococcus aureus; conditions: ATCC 29213, 18 h
Protocol: as §2

MRSA ATCC 33592 = assay type: cell-based, Staphylococcus aureus; conditions: ATCC 33592, 18 h
Protocol: as §2

E. coli ATCC 25922 [8] = assay type: cell-based, Escherichia coli; conditions: ATCC 25922, 18 h
Protocol: as §2

MSSE 81388 [9] = assay type: cell-based, Staphylococcus epidermidis
Protocol: as §3

MRSE 61589 [10] = assay type: cell-based, Staphylococcus epidermidis
Protocol: as §3

E. cloacae 118564 = experiment: microbe, parasite or virus in culture; assay type: cell-based, Enterobacter cloacae; conditions: 118564, 18 h
Method in brief: as §1

[11] = UTBLP alone, plate with chloramphenicol
[12] = UTBLP in combination with chloramphenicol
[13] = chloramphenicol in combination with the UTBLP
[14] = UTBLP in combination with novobiocin
[15] = UTBLP in combination with rifampicin
[16] = novobiocin in combination with the UTBLP
[17] = rifampicin in combination with the UTBLP

CCCCCCCC(=O)NCCCC[C@H](NC(=O)CCCCCCC)C(=O)N[C@@H](CCCCN)C(=O)N[C@@H](CCCCN)C(=O)N[C@@H](CCCCN)C(=O)N[C@@H](CCCCN)C(N)=O [UTBLP 5] (Octanoyl-K(Octanoyl)KKKK-NH2)
MIC [1]: 128 µg/mL (≈ 141 µM)
MIC [2]: > 128 µg/mL
MIC (K. pneumoniae 113250): > 128 µg/mL
MIC (P. aeruginosa PAO1): >128 µg/mL
Interpretation (E. faecium ATCC 27270; UTBLP + chloramphenicol): Additive (0.5 < x ≤ 4 is additive)
MICUTBLP (E. faecium ATCC 27270; [11]): 32 µg/mL
MICUTBLP [MICcombo] (E. faecium ATCC 27270; [12]): 8 µg/mL
MICchloramphenicol [MICcombo] (E. faecium ATCC 27270; [13]): 2 µg/mL
MIC (MSSE 81388 [3]): 16 µg/mL (≈ 17.6 µM)
MIC (MRSE 61589 [4]): 8 µg/mL (≈ 8.79 µM)
MIC (E. coli 94474): 128 µg/mL (≈ 141 µM)
MIC (E. coli 94393 [5]): 32 µg/mL (≈ 35.2 µM)
Interpretation (E. coli ATCC 25922 [6]; UTBLP + chloramphenicol): Synergy (FICI ≤ 0.5 is synergistic)
Interpretation (E. coli ATCC 25922 [6]; UTBLP + niclosamide): Synergy (FICI ≤ 0.5 is synergistic)
Interpretation (E. coli ATCC 25922 [6]; UTBLP + novobiocin): Synergy (FICI ≤ 0.5 is synergistic)
Interpretation (E. coli ATCC 25922 [6]; UTBLP + rifampicin): Synergy (FICI ≤ 0.5 is synergistic)
MICUTBLP (E. coli ATCC 25922 [6]; plate with chloramphenicol): 64 µg/mL
MICUTBLP (E. coli ATCC 25922 [6]; plate with niclosamide): 64 µg/mL
MICUTBLP (E. coli ATCC 25922 [6]; plate with novobiocin): 64 µg/mL
MICUTBLP (E. coli ATCC 25922 [6]; plate with rifampicin): 64 µg/mL
MICUTBLP [MICcombo] (E. coli ATCC 25922 [6]; [12]): 16 µg/mL
MICUTBLP [MICcombo] (E. coli ATCC 25922 [6]; UTBLP in combination with niclosamide): 0.5 µg/mL
MICUTBLP [MICcombo] (E. coli ATCC 25922 [6]; [14]): 1 µg/mL
MICUTBLP [MICcombo] (E. coli ATCC 25922 [6]; [15]): 2 µg/mL
MICantibiotic [MICcombo] (E. coli ATCC 25922 [6]; [13]): 0.25 µg/mL
MICantibiotic [MICcombo] (E. coli ATCC 25922 [6]; niclosamide in combination with the UTBLP): 2 µg/mL
MICantibiotic [MICcombo] (E. coli ATCC 25922 [6]; [16]): 0.5 µg/mL
MICantibiotic [MICcombo] (E. coli ATCC 25922 [6]; [17]): 0.063 µg/mL
Interpretation (E. coli 94393 [7]; UTBLP + novobiocin): Synergy (FICI ≤ 0.5 is synergistic)
Interpretation (E. coli 94393 [7]; UTBLP + rifampicin): Synergy (FICI ≤ 0.5 is synergistic)
MICUTBLP (E. coli 94393 [7]; plate with novobiocin): 32 µg/mL
MICUTBLP (E. coli 94393 [7]; plate with rifampicin): 32 µg/mL
MICUTBLP [MICcombo] (E. coli 94393 [7]; [14]): 1 µg/mL
MICUTBLP [MICcombo] (E. coli 94393 [7]; [15]): 4 µg/mL
MICantibiotic [MICcombo] (E. coli 94393 [7]; [16]): 2 µg/mL
MICantibiotic [MICcombo] (E. coli 94393 [7]; [17]): 0.125 µg/mL
Interpretation (E. faecalis ATCC 29212; UTBLP + chloramphenicol): Additive (0.5 < x ≤ 4 is additive)
MICUTBLP (E. faecalis ATCC 29212; [11]): 32 µg/mL
MICUTBLP [MICcombo] (E. faecalis ATCC 29212; [12]): 4 µg/mL
MICchloramphenicol [MICcombo] (E. faecalis ATCC 29212; [13]): 4 µg/mL
MIC (S. aureus ATCC 29213): 64 µg/mL (≈ 70.3 µM)
MIC (MRSA ATCC 33592): 64 µg/mL (≈ 70.3 µM)
MIC (E. coli ATCC 25922 [8]): 64 µg/mL (≈ 70.3 µM)
Interpretation (MSSE 81388 [9]; UTBLP + chloramphenicol): Additive (0.5 < x ≤ 4 is additive)
MICUTBLP (MSSE 81388 [9]; [11]): 16 µg/mL
MICUTBLP [MICcombo] (MSSE 81388 [9]; [12]): 8 µg/mL
MICchloramphenicol [MICcombo] (MSSE 81388 [9]; [13]): 0.25 µg/mL
Interpretation (MRSE 61589 [10]; UTBLP + chloramphenicol): Additive (0.5 < x ≤ 4 is additive)
MICUTBLP (MRSE 61589 [10]; [11]): 8 µg/mL
MICUTBLP [MICcombo] (MRSE 61589 [10]; [12]): 4 µg/mL
MICchloramphenicol [MICcombo] (MRSE 61589 [10]; [13]): 4 µg/mL
MIC (E. cloacae 118564): > 128 µg/mL
